# Entries after “also recorded” stand apart in the source; their conditions may differ.
# Tests used:
# [1] = target: T1, hCD33 (Homo sapiens, UniProt P20138); test: glycan microarray binding of hCD33-Fc; set-up: made in house
# Target sequence in this assay (P20138 18-259 limits assumed): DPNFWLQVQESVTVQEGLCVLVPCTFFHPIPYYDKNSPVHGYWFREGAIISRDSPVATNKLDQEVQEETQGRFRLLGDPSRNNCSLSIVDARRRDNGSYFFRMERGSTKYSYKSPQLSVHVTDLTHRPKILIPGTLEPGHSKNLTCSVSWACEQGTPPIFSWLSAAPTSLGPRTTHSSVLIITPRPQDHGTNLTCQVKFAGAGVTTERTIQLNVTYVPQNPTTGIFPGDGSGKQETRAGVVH
# [2] = system: HL-60 cells; test: HL-60 cell binding to arrayed compound; set-up: species or system human; settings: AML cell line expressing intermediate levels of hCD33
# Description: This increase in avidity was further supported by the fact that HL-60 cells, an AML cell line expressing intermediate levels of hCD33, bound to compound 22.
# [3] = target: T1, hCD33; test: solution-phase inhibition assay, flow cytometry: binding of fluorescently labelled hCD33 to ligand-coated beads
# Procedure: Glycan microarrays may provide only qualitative measures of avidity and selectivity. Therefore, the relative affinities of these compounds were analyzed using solution-phase inhibition assays where IC50 values were determined using a flow cytometry assay. The flow cytometry assay evaluated whether the compounds were able to prevent the binding of fluorescently labelled hCD33 to ligand-coated beads, and these values were used to determine the relative inhibitory potency (rIP) for each compound compared to the native sialoside (rIP=1).
# Target sequence in this assay (P20138 18-364): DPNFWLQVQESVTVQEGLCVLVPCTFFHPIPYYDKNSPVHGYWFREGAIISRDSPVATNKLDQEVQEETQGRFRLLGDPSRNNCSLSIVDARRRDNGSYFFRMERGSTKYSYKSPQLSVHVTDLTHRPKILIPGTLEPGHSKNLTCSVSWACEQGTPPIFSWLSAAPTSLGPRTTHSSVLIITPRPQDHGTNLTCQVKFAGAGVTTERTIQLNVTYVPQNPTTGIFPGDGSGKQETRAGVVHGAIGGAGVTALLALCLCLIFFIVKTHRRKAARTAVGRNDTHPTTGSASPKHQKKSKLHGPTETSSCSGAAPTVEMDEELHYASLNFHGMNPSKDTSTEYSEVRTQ
# [4] = target: Siglec-8 (Homo sapiens, UniProt Q9NYZ4); settings: Bochner et al. 2005; Floyd et al. 2000; cited from earlier work
# Sequence of Siglec-8 (Q9NYZ4 17-499): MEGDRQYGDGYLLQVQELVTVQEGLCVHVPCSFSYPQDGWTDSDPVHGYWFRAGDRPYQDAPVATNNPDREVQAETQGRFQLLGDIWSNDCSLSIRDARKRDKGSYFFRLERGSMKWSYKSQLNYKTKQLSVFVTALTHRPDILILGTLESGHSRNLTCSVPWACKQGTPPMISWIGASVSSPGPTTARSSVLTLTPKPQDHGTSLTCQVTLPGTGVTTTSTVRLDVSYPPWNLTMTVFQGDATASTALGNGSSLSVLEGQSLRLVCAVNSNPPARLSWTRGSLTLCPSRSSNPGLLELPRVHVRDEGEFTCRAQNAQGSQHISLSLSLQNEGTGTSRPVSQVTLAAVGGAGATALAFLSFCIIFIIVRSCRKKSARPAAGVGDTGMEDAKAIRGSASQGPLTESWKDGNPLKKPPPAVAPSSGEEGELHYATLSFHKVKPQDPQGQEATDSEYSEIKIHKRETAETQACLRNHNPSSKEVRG
increase in affinity relative to the native sialoside ([3]; hCD33) [fold],IC50 ([3]; prevention of binding of fluorescently labelled hCD33 to ligand-coated beads) [µM],rIP value ([3]; relative inhibitory potency compared to the native sialoside (rIP=1)),Molecule,selectivity for hCD33 over hCD22 and mSn ([1]; glycan microarray),"binding (affinity/avidity, selectivity) to hCD33 on glycan array ([1]; printed at 100 μM or 3 μM, hCD33-Fc pre-complexed with R-PE anti-human IgG)",binding of HL-60 cells to compound [2],binding to Siglec-8 [4]
350,11,351,Cc1cc(C(=O)NC[C@@H](O)[C@@H](O)C2O[C@@](OCC3O[C@@H](O[C@@H]4C(CO)O[C@@H](OCCN)C(O)[C@H]4O)C(O)[C@@H](O)[C@H]3O)(C(=O)O)C[C@@H](O)[C@H]2NC(=O)Cn2cc(C3CCCCC3)nn2)cc(C)c1O (stereo partly shown) [Compound 22],showed increased selectivity for hCD33 over hCD22 and mSn,exhibited superior properties compared to the monosubstituted compounds; also recorded: exhibited higher avidity than both parent compounds,bound,
,,,Neu5Acα2-3[6-SO4]Galβ1-4[Fucα1-3]GlcNAc [6′-sulfo-sLe^X],,,,binds to
